Measured values from US12077503B2, “Substituted cyclic amides and their use as herbicides” (FMC CORPORATION, priority 2015, dated 2024).

Assays:
Assay type in all cases: in vivo
[1] = test system: pigweed (Amaranthus retroflexus); assay: Test A postemergence; settings: postemergence, 0 to 100 scale (0 no effect, 100 complete control)
Procedure, shortened: (§1)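 Seeds sprayed preemergence with a directed soil spray, or plants at 2 to 10 cm height and one- to two-leaf stage sprayed postemergence, with test chemicals in a non-phytotoxic solvent mixture containing surfactant, in loam soil–sand blend. Injury rated visually against untreated controls after about 10 d in greenhouse, 0 (no effect) to 100 (complete control).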

corn (Zea mays) = assay: Test A postemergence; settings: postemergence, 0 to 100 scale (0 no effect, 100 complete control)
Procedure, shortened: as §1

[2] = test system: barnyardgrass (Echinochloa crus-galli); assay: Test A postemergence; settings: postemergence, 0 to 100 scale (0 no effect, 100 complete control)
Procedure, shortened: as §1

[3] = test system: ryegrass, Italian (Italian ryegrass, Lolium multiflorum); assay: Test A postemergence; settings: postemergence, 0 to 100 scale (0 no effect, 100 complete control)
Procedure, shortened: as §1

[4] = test system: Galium (catchweed bedstraw, Galium aparine); assay: Test A postemergence; settings: postemergence, 0 to 100 scale (0 no effect, 100 complete control)
Procedure, shortened: as §1

[5] = test system: wheat (Triticum aestivum); assay: Test A postemergence; settings: postemergence, 0 to 100 scale (0 no effect, 100 complete control)
Procedure, shortened: as §1

[6] = test system: ragweed (common ragweed, Ambrosia elatior); assay: Test A postemergence; settings: postemergence, 0 to 100 scale (0 no effect, 100 complete control)
Procedure, shortened: as §1

Kochia (Kochia scoparia) [7] = assay: Test A postemergence; settings: postemergence, 0 to 100 scale (0 no effect, 100 complete control)
Procedure, shortened: as §1

[8] = test system: blackgrass (Alopecurus myosuroides); assay: Test A postemergence; settings: postemergence, 0 to 100 scale (0 no effect, 100 complete control)
Procedure, shortened: as §1

[9] = test system: giant foxtail (Setaria faberii); assay: Test A postemergence; settings: postemergence, 0 to 100 scale (0 no effect, 100 complete control)
Procedure, shortened: as §1

rice (Oryra sativa) = assay: Test B flooded paddy test; settings: Flood, 250 g ai/ha; 0 to 100 scale where 0 is no effect and 100 is complete control; 13 to 15 d
Procedure, shortened: (§2)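 Evaluation by eye, against controls, occurred 13–15 d post-treatment in a greenhouse, using a 0 (no effect) to 100 (complete control) scale. Application was into the paddy water, 3 cm deep over the soil, on 2-leaf plants.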

[10] = test system: barnyardgrass (Echinochloa crus-galli); assay: Test B flooded paddy test; settings: Flood, 250 g ai/ha; 0 to 100 scale where 0 is no effect and 100 is complete control; 13 to 15 d
Procedure, shortened: as §2

[11] = test system: ducksalad (Heteranthera limosa); assay: Test B flooded paddy test; settings: Flood, 250 g ai/ha; 0 to 100 scale where 0 is no effect and 100 is complete control; 13 to 15 d
Procedure, shortened: as §2

[12] = test system: sedge, umbrella (small-flower umbrella sedge, Cyperus difformis); assay: Test B flooded paddy test; settings: Flood, 250 g ai/ha; 0 to 100 scale where 0 is no effect and 100 is complete control; 13 to 15 d
Procedure, shortened: as §2

[13] = test system: pigweed (Amaranthus retroflexus); assay: Test A preemergence
[14] = test system: barnyardgrass (Echinochloa crus-galli); assay: Test A preemergence
Procedure, shortened: as §1

[15] = test system: ryegrass, Italian (Italian ryegrass, Lolium multiflorum); assay: Test A preemergence
Procedure, shortened: as §1

[16] = test system: ragweed (common ragweed, Ambrosia elatior); assay: Test A preemergence
Procedure, shortened: as §1

Kochia (Kochia scoparia) [17] = assay: Test A preemergence
Procedure, shortened: as §1

[18] = test system: giant foxtail (Setaria faberii); assay: Test A preemergence
Procedure, shortened: as §1

[19] = 125 g ai/ha, visual rating after approx. 10 d
[20] = 500 g ai/ha, visual injury, approx. 10 d
[21] = 125 g ai/ha, Preemergence, visual injury after approximately 10 d, 0 to 100 scale where 0 is no effect and 100 is complete control
[22] = 500 g ai/ha, preemergence, 0 to 100 scale, 0 = no effect, 100 = complete control

Structure (SMILES)	Plant response rating, Pigweed [1, 19]	Plant response rating, Pigweed [1, 20]	Plant response rating, Corn (corn (Zea mays); [19])	Plant response rating, Corn (corn (Zea mays); [20])	Plant response rating, Barnyardgrass [2, 19]	Plant response rating, Barnyardgrass [2, 20]	Plant response rating, Ryegrass, Italian [3, 19]	Plant response rating, Ryegrass, Italian [3, 20]	Plant response rating, Galium [4, 19]	Plant response rating, Galium [4, 20]	Plant response rating, Wheat [5, 19]	Plant response rating, Wheat [5, 20]	Plant response rating, Ragweed [6, 19]	Plant response rating, Ragweed [6, 20]	Plant response rating, Kochia (Kochia (Kochia scoparia) [7]; [19])	Plant response rating, Kochia (Kochia (Kochia scoparia) [7]; [20])	Plant response rating, Blackgrass [8, 19]	Plant response rating, Blackgrass [8, 20]	Plant response rating, Foxtail, Giant [9, 19]	Plant response rating, Foxtail, Giant [9, 20]	further results
CN1CC(c2cc(F)cc(F)c2)C(C(=O)Nc2cccc(F)c2F)C1=O (stereo not drawn) [Compound 644]	20	30	70	80	90	90	50	80	50	60	50	80	0	40	20	70	60	70	90	90	Plant response rating, Rice (rice (Oryra sativa)): 15; Plant response rating, Barnyardgrass [10]: 85; Plant response rating, Ducksalad [11]: 98; Plant response rating, Sedge, Umbrella [12]: 0; Plant response rating, Pigweed [13, 21]: 60; Plant response rating, Pigweed [13, 22]: 70; Plant response rating, Barnyardgrass [14, 21]: 90; Plant response rating, Barnyardgrass [14, 22]: 90; Plant response rating, Ryegrass, Italian [15, 21]: 60; Plant response rating, Ryegrass, Italian [15, 22]: 90; Plant response rating, Ragweed [16, 21]: 50; Plant response rating, Ragweed [16, 22]: 60; Plant response rating, Kochia (Kochia (Kochia scoparia) [17]; [21]): 50; Plant response rating, Kochia (Kochia (Kochia scoparia) [17]; [22]): 80; Plant response rating, Foxtail, Giant [18, 21]: 90; Plant response rating, Foxtail, Giant [18, 22]: 90
CC(C)Oc1cccc(C2CN(C)C(=O)C2C(=O)Nc2cccc(F)c2F)c1 (stereo not drawn) [Compound 651]	0	30	80	90	90	90	50	70	60	60	40	60	0	20	0	40	60	70	80	80	Plant response rating, Rice (rice (Oryra sativa)): 0; Plant response rating, Barnyardgrass [10]: 60; Plant response rating, Ducksalad [11]: 100; Plant response rating, Sedge, Umbrella [12]: 0; Plant response rating, Pigweed [13, 21]: 40; Plant response rating, Pigweed [13, 22]: 100; Plant response rating, Barnyardgrass [14, 21]: 90; Plant response rating, Barnyardgrass [14, 22]: 90; Plant response rating, Ryegrass, Italian [15, 21]: 90; Plant response rating, Ryegrass, Italian [15, 22]: 90; Plant response rating, Ragweed [16, 21]: 50; Plant response rating, Ragweed [16, 22]: 90; Plant response rating, Kochia (Kochia (Kochia scoparia) [17]; [21]): 60; Plant response rating, Kochia (Kochia (Kochia scoparia) [17]; [22]): 70; Plant response rating, Foxtail, Giant [18, 21]: 90; Plant response rating, Foxtail, Giant [18, 22]: 100
CC(C)Oc1cccc(C2CN(C)C(=O)C2C(=O)Nc2ccccc2S(C)(=O)=O)c1 (stereo not drawn) [Compound 653]	0	0	0	30	60	90	40	60	40	50	30	60	0	0	0	0	50	70	60	90	Plant response rating, Rice (rice (Oryra sativa)): 0; Plant response rating, Barnyardgrass [10]: 30; Plant response rating, Ducksalad [11]: 40; Plant response rating, Sedge, Umbrella [12]: 0; Plant response rating, Pigweed [13, 21]: 70; Plant response rating, Pigweed [13, 22]: 90; Plant response rating, Barnyardgrass [14, 21]: 90; Plant response rating, Barnyardgrass [14, 22]: 90; Plant response rating, Ryegrass, Italian [15, 21]: 70; Plant response rating, Ryegrass, Italian [15, 22]: 70; Plant response rating, Ragweed [16, 21]: 50; Plant response rating, Ragweed [16, 22]: 80; Plant response rating, Kochia (Kochia (Kochia scoparia) [17]; [21]): 0; Plant response rating, Kochia (Kochia (Kochia scoparia) [17]; [22]): 70; Plant response rating, Foxtail, Giant [18, 21]: 90; Plant response rating, Foxtail, Giant [18, 22]: 100
Cc1ccc(C2CN(C)C(=O)C2C(=O)Nc2ccccc2S(C)(=O)=O)cc1 (stereo not drawn) [Compound 663]	0	20	30	80	90	90	40	70	50	60	50	70	30	40	20	60	60	70	90	90	Plant response rating, Rice (rice (Oryra sativa)): 0; Plant response rating, Barnyardgrass [10]: 70; Plant response rating, Ducksalad [11]: 98; Plant response rating, Sedge, Umbrella [12]: 0; Plant response rating, Pigweed [13, 21]: 30; Plant response rating, Pigweed [13, 22]: 70; Plant response rating, Barnyardgrass [14, 21]: 90; Plant response rating, Barnyardgrass [14, 22]: 100; Plant response rating, Ryegrass, Italian [15, 21]: 30; Plant response rating, Ryegrass, Italian [15, 22]: 90; Plant response rating, Ragweed [16, 21]: 30; Plant response rating, Ragweed [16, 22]: 70; Plant response rating, Kochia (Kochia (Kochia scoparia) [17]; [21]): 70; Plant response rating, Kochia (Kochia (Kochia scoparia) [17]; [22]): 80; Plant response rating, Foxtail, Giant [18, 21]: 90; Plant response rating, Foxtail, Giant [18, 22]: 100
